Entries after “also recorded” stand apart in the source; their conditions may differ.
Key:
[1] = system: APP-Tg mouse; assay: Evaluation of the cognitive function by novel object recognition test (NORT) in APP-Tg mice (Test 3); assay type: in vivo; design: key to Discrimination index: (novel − known search time)/(novel + known search time); settings: for improvement of cognitive function (NORT), summary of the above results / improvement of cognitive function (NORT): APP-Tg mice; for improvement of cognitive function (NORT), summary of the above results: alone, with Elacridar or with ABT depending on the compound
Method: Test 3: Evaluation of the Cognitive Function by Novel Object Recognition Test (Hereinafter, Also Referred to as “NORT”)
The present test is for evaluating the improvement of cognitive function with the test compounds. When an APP-Tg mouse which is an AD (Alzheimer's disease) model mouse is evaluated by NORT, the memory for a familiar object decreases depending on the time interval between the first trial run (training) and the second trial run (test). For example, if the first trial run is done and 3 hours later the second one is done, there is no difference in the searching times between novel object and known object for the APP-Tg mouse, compared with a healthy mouse. Thus, the APP-Tg mouse suffers from significant amnesia.
The APP-Tg mouse used herein was prepared by constructing an expression cassette linked to human APP751 isoform to which Swedish (K670N/M671L) and Indiana (V717F) mutation were introduced at downstream of mouse Thy-1 promoter, then injecting the expression cassette into a mouse fertilized egg, and transplanting it to a host mouse. The prepared mouse presents with intracerebral AB accumulation and cognitive dysfunction from early on, and thus the mouse can be used for the evaluation of cognitive function. APP-Tg mouse has been also reported in Non-patent literature 6.
To the prepared APP-Tg mouse, the test compound was administered, and then the first trial run was done for the mouse 30 minutes after the intraperitoneal administration or after 10 days of mixed diet administration. The second trial run was done 3 hours after the first trial run, and the searching times between novel object and known object in the second trial were evaluated. The discrimination index was calculated from the searching time for novel object and known object in the second trial run, and the improvement of cognitive function of the test compound was confirmed by comparing the discrimination index with the test compound-unadministered group as an index of the cognitive function. The discrimination index was calculated by the following formula.
Discrimination index={(Searching time for novel object)−(Searching time for known object)}/{(Searching time for novel object)+(Searching time for known object)}
The present test can be also done with a combination with Elacridar (Tokyo Chemical Industry Co., Ltd.). Elacridar can inhibit P-gp and BCRP which are excretion transporters expressed in the blood-brain barrier and thereby Elacridar has the effect of improving the transferability of the test compound to the brain. Eracridal was orally administered to APP-Tg mice at 100 mg/kg 2 hours before the first trial run, and then the test compound was intraperitoneally administered to the mice 30 minutes before the first trial run according to the above method. And, the improvement of cognitive function was evaluated. The significant difference from the vehicle-administered group was determined using the parametric Dunnett multiple comparison test.
And, the present test can be also done with a combination with ABT (1-aminobenzotriazole) (Tokyo Chemical Industry Co., Ltd.). ABT has the effect of improving the blood concentration of the test compound by inhibiting CYP and suppressing metabolism. The test compound and ABT (1 mg/g-food) were administered with food to APP-Tg mice for 10 days, and then the improvement of cognitive function was evaluated according to the above method. The significant difference from the vehicle-administered group was determined using the parametric Dunnett multiple comparison test.

[2] = system: intracerebral tau aggregate accumulation; assay: Intracerebral tau aggregate accumulation in rTg4510 mice, tau PET with [18F] PM-PBB3, SUVR (Test 5); assay type: in vivo, mouse
From the text: Test 5: Evaluation of Intracerebral Tau Aggregate Accumulation and Cerebral Atrophy Using rTg4510 Mice
This test is a test to evaluate the effects of the compounds on intracerebral tau aggregate accumulation and cerebral atrophy. The rTg4510 mice overexpress the human-type FTDP-17 mutant tau in the forebrain, and month-age-dependent intracerebral tau aggregate accumulation and cerebral atrophy are observed. The rTg4510 mice used herein were produced by mating Tg (tauP301L) 4510 mice (Stock No. 015815) and CaMKII-tTA mice (Stock No. 007004) purchased from The Jackson Laboratory and breeding them.
The test compound was administered as a mixed diet to rTg4510 mice from the age of 4 months, and PET scan and MRI were performed at the ages of 4, 6 and 8 months to quantitatively evaluate the amount of the intracerebral tau aggregate accumulated and cerebral atrophy. The PET scan was performed using MicroPET Focus 220 of Siemens Medical Solutions (0.851 mm thick (intercenter) 95 slices, 19.0 cm axial field of view (FOV), and 7.6 cm intra-section FOV). The administration of radioactive compound [^18F] PM-PBB3 (precursor obtained from Aprinoia) and the PET scan were performed in dimly lit after the mice was treated with 1.5% isoflurane anesthesia to avoid […] of the radioactive compound. The emission scan was performed for 60 minutes immediately after the intravenous administration of [^18F] PM-PBB3 (1 mCi) (3D list mode, energy window: 350-750 keV). Then, the list mode data sorted into 3D synograms were converted into 2D synograms by Fourier-rebinding (frames: 4×1, 8×2 and 8×5 minutes). The dynamic image for 60 minutes after the administration of [^18F] PM-PBB3 was reconstructed by a filter-corrected back projection with a 0.5 mm Hanning filter. Regions of interest (ROI) were set in multiple brain regions using PMOD image analysis software (PMOD Technology) with reference to the MRI templates and the PET reconstructed images. Tau aggregate accumulation was evaluated by calculating SUVR (Standardized uptake value ratio) with the cerebellum as a reference region, based on the added average of dynamic images from 40 minutes to 60 minutes.

[3] = 4 month old, 3 mg/g-food, with ABT 1 mg/g-food
[4] = 6 month old, 3 mg/g-food, with ABT 1 mg/g-food
[5] = 8 month old, 3 mg/g-food, with ABT 1 mg/g-food
[6] = 4 month old, 5.8 mg/g-food from the age of 4 months
[7] = 6 month old, 5.8 mg/g-food from the age of 4 months
[8] = 8 month old, 5.8 mg/g-food from the age of 4 months

## CN(c1ncc2cnn(CC(=O)Nc3ccn4ncnc4c3)c2n1)C1CCCC1 [Example 795, 2-{6-[cyclopentyl(methyl)amino]-1H-pyrazolo[3,4-d]pyrimidin-1-yl}-N-([1,2,4]triazolo[1,5-a]pyridin-7-yl)acetamide]
[1]
  improvement of cognitive function (NORT), summary of the above results: some improvement of cognitive function
[1]; test compound and ABT (1 mg/g-food) administered with food for 10 days
  improvement of cognitive function (NORT): some improvement of cognitive function
[1]; APP-Tg mouse, dose 0.2 mg/g-food for 10 days, with ABT 1 mg/g-food
  Discrimination index: 0.30
[1]; APP-Tg mouse, dose 2 mg/g-food for 10 days, with ABT 1 mg/g-food
  Discrimination index: 0.27
[2]; [3]
  SUVR(cerebellum ratio) cerebral neocortex: 1.023 ± 0.009
  SUVR(cerebellum ratio) hippocampus: 1.134 ± 0.042
[2]; [4]
  SUVR(cerebellum ratio) cerebral neocortex: 1.149 ± 0.031
  SUVR(cerebellum ratio) hippocampus: 1.308 ± 0.044
[2]; [5]
  SUVR(cerebellum ratio) cerebral neocortex: 1.268 ± 0.036
  SUVR(cerebellum ratio) hippocampus: 1.419 ± 0.048
[2]; mixed diet 3 mg/g-food with ABT 1 mg/g-food
  age-dependent increase in SUVR in the cerebral neocortex and hippocampus (FIG. 5): tended to be suppressed
[2]; mixed diet 3 mg/g-food with ABT 1 mg/g-food, ages 4, 6 and 8 months
  increase in PET tracer accumulation in each brain region with aging (average SUVR images, FIG. 4): suppressed

## CC1CC=C(c2cnc3cnn(CC(=O)Nc4ccn5ncnc5c4)c3n2)CC1 (stereo not drawn) [Example 577, 2-[6-(4-methylcyclohex-1-en-1-yl)-1H-pyrazolo[3,4-b]pyrazin-1-yl]-N-([1,2,4]triazolo[1,5-a]pyridin-7-yl)acetamide]
[1]; Elacridar orally 100 mg/kg 2 hours before, test compound intraperitoneally 30 minutes before the first trial run, 100 mg/kg
  improvement of cognitive function (NORT): some improvement of cognitive function; also recorded: strong improvement of cognitive function
[1]
  improvement of cognitive function (NORT), summary of the above results: some improvement of cognitive function
[1]; APP-Tg mouse, dose 10 (mg/g i.p.), with Elacridar 100 mg/kg orally 2 hours before first trial run
  Discrimination index: 0.13
[1]; APP-Tg mouse, with Elacridar 100 mg/kg orally 2 hours before first trial run
  Discrimination index: 0.21
[2]; mixed diet 0.7 mg/g-hood administration group
  individuals that did not show any increase in the SUVR from the age of 6 months to the age of 8 months: 3 out of 5
[2]; mixed diet 6.6 mg/g-hood administration group
  individuals that did not show any increase in the SUVR from the age of 6 months to the age of 8 months: 3 out of 6
[2]; mixed diet 0.7 and 6.6 mg/g-food
  accumulation of tau aggregates (suggested from SUVR): suppressed

## CC1CCN(c2ccc(=O)n(CC(=O)Nc3ccc(C#N)cc3)n2)CC1 [Example 1, N-(4-Cyanophenyl)-2-[3-(4-methylpiperidin-1-yl)-6-oxopyridazin-1(6H)-yl]acetamide]
[1]
  improvement of cognitive function (NORT), summary of the above results: some improvement of cognitive function
[1]; APP-Tg mouse, 30 minutes before first trial run
  Discrimination index: 0.25
[1]; APP-Tg mouse, dose 3 (mg/g i.p.), 30 minutes before first trial run
  Discrimination index: 0.12
[1]; APP-Tg mouse, dose 10 (mg/g i.p.), 30 minutes before first trial run
  Discrimination index: 0.22
[1]; APP-Tg mouse, intraperitoneal doses of 10 and 30 mg/kg, parametric Dunnett multiple comparison test
  improvement of cognitive function, significant difference from the vehicle-administered group: statistically significant
[1]; APP-Tg mouse, intraperitoneally 3, 10 and 30 mg/kg 30 minutes before the first trial run
  improvement of cognitive function (NORT, discrimination index): dose-dependent improvement of cognitive function
[2]; [6]
  SUVR(cerebellum ratio) cerebral neocortex: 0.986 ± 0.009
  SUVR(cerebellum ratio) hippocampus: 1.078 ± 0.009
[2]; [7]
  SUVR(cerebellum ratio) cerebral neocortex: 1.098 ± 0.013
  SUVR(cerebellum ratio) hippocampus: 1.182 ± 0.016
[2]; [8]
  SUVR(cerebellum ratio) cerebral neocortex: 1.184 ± 0.017
  SUVR(cerebellum ratio) hippocampus: 1.284 ± 0.024
[2]; diet 5.8 mg/g-food from the age of 4 months
  age-dependent increase in SUVR in the cerebral neocortex and hippocampus (FIG. 3): statistically significantly suppressed
[2]; diet 5.8 mg/g-food from the age of 4 months, ages 4, 6 and 8 months, vs non-administration group
  increase in tau PET tracer accumulation in each region with aging (SUVR average images, FIG. 1): significantly suppressed

Source: patent publication US20230109839A1, “THERAPEUTIC AGENT FOR TAUOPATHIES” (SUMITOMO PHARMA CO., LTD., priority 2020, published 2023)
